Assay: in vitro combination dose-effect analysis (cytotoxicity, Chou-Talalay combination index)
Format: cell-based
Conditions: FIG. 2D; single agent compared with combination
Experimental: By way of illustration, individual agents and various combinations thereof are tested for their biological effect on cell culture or a cell-free system, for example causing cell death or inhibiting cell growth, at various concentration levels. The concentration levels of the preset ratios are plotted against the percentage cell survival to obtain a correlation which can be manipulated by known and established mathematical techniques to calculate a “combination index” (CI). The mathematics are such that a CI of 1 (i.e., 0.9-1.1) describes an additive effect of the drugs; a CI>1 (i.e., >1.1) represents an antagonist effect; and a CI of <1 (i.e., <0.9) represents a synergistic effect.
As shown, agents A and B are tested individually and together at two different ratios for their ability to cause cell death or cell stasis as assessed by the MTT assay described below. Initially, correlations between the concentration of drugs A, B, and the two different combination ratios (Y:Z and X:Y) are plotted against cytotoxicity, calculated as a percentage based on the survival of untreated control cells. […] Once this correlation has been established, the cell survival or fraction affected (fa) can be used as a surrogate for concentration in calculating the CI. […]

Row | Structure (SMILES) | concentration required to achieve a 90% cell kill on its own versus when combined at a non-antagonistic ratio
1 | N.N.O=C([O-])C1(C(=O)[O-])CCC1.[Pt+2] [carboplatin] | significantly higher
2 | CCc1c2c(nc3ccc(OC(=O)N4CCC(N5CCCCC5)CC4)cc13)-c1cc3c(c(=O)n1C2)COC(=O)[C@]3(O)CC [irinotecan] | significantly higher
